Ki, Efficacy and EC50 data for 24 compounds are collected here from ChEMBL document CHEMBL1139705, “Synthesis and in vitro pharmacological studies of new C(4)-modified salvinorin A analogues” (Bioorg Med Chem Lett, 2006).

For assay [1], the target named is T1, Kappa-type opioid receptor (Homo sapiens, UniProt P41145). Nature of the assay: Displacement of [3H]diprenorphine binding from human kappa opioid receptor expressed in CHO cells. The format is cell-based. For orientation: In a radioligand displacement assay an active substance lowers the binding of a labelled ligand.
The target in assay [2] is T1, Kappa-type opioid receptor. Nature of the assay: Efficacy at human kappa opioid receptor expressed in CHO cells by [35S]GTP-gamma-S binding assay relative to U50,488H. Type of assay: functional, cell-based. On the technique in general: GTPγS is a poorly hydrolysed GTP analogue; its binding reports G protein activation.
In assay [3] the target is T1, Kappa-type opioid receptor. Put plainly: Binding potency at human kappa opioid receptor expressed in CHO cells by [35S]GTPgammaS binding assay. Type of assay: functional, cell-based.

Each structure is given as a SMILES string.

T1 sequence (P41145 whole entry): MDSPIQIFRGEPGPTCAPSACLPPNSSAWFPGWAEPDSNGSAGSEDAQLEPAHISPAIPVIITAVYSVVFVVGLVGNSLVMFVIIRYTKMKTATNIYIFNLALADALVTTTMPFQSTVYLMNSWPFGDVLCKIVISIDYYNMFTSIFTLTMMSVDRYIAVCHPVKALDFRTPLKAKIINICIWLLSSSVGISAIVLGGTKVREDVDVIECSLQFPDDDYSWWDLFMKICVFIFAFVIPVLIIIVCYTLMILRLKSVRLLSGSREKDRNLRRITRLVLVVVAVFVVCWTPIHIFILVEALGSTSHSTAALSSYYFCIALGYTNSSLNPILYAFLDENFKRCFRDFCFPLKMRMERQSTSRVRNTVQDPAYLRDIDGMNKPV

As usually defined, the Ki is a measure of affinity in units of concentration, obtained from inhibition or displacement. A higher Ki goes with a looser hold on the target. Regarding `CC(=O)O[C@H]1C[C@@H](COC(=O)C(NC(=O)OCC2c3ccccc3-c3ccccc32)c2ccccc2)[C@]2(C)CC[C@H]3C(=O)O[C@H](c4ccoc4)C[C@]3(C)[C@H]2C1=O` (stereo not given in full), the Ki in assay [1] was more than 1000 nM.

In assay [1], `COC[C@@H]1C[C@H](OC(C)=O)C(=O)[C@H]2[C@@]1(C)CC[C@H]1C(=O)O[C@H](c3ccoc3)C[C@]21C` registered a Ki of more than 1000 nM.

On to `COC(=O)[C@@H]1C[C@H](OC(C)=O)C(=O)[C@H]2[C@@]1(C)CC[C@H]1C(=O)O[C@H](c3ccoc3)C[C@]21C`, for which the Efficacy in assay [2] turned out to be 106%.

Regarding `CC(=O)O[C@H]1C[C@@H](COC(=O)CNC(=O)OCC2c3ccccc3-c3ccccc32)[C@]2(C)CC[C@H]3C(=O)O[C@H](c4ccoc4)C[C@]3(C)[C@H]2C1=O`, the Ki in assay [1] is more than 1000 nM.

In assay [1], `CCOC[C@@H]1C[C@H](OC(C)=O)C(=O)[C@H]2[C@@]1(C)CC[C@H]1C(=O)O[C@H](c3ccoc3)C[C@]21C` returned a Ki of more than 1000 nM.

Turning to `CC(=O)O[C@H]1C[C@@H](COC(=O)c2ccc(F)cc2)[C@]2(C)CC[C@H]3C(=O)O[C@H](c4ccoc4)C[C@]3(C)[C@H]2C1=O`, the inhibition constant Ki in assay [1] was more than 1000 nM.

The term EC50 denotes the concentration that produces a half-maximal response. Read a low EC50 as a more potent agent. In the case of `CC(=O)O[C@H]1C[C@@H](COC(=O)C2CC2)[C@]2(C)CC[C@H]3C(=O)O[C@H](c4ccoc4)C[C@]3(C)[C@H]2C1=O`, in assay [1], the inhibition constant Ki came out at 221 nM. Also, the Efficacy in assay [2] was determined as 92%. The compound also had a 50% effective concentration (EC50) in assay [3] of 358 nM.

As for `COCCOCC(=O)OC[C@@H]1C[C@H](OC(C)=O)C(=O)[C@H]2[C@@]1(C)CC[C@H]1C(=O)O[C@H](c3ccoc3)C[C@]21C`, in assay [1], the Ki was 613 nM. The compound further displayed an Efficacy in assay [2] of 98%. For the same compound, the EC50 in assay [3] turned out to be 210 nM.

In assay [1], `COCCOCC(=O)OC[C@@H]1C[C@H](OC(C)=O)C(=O)[C@H]2[C@@]1(C)CC[C@@H]1C(=O)O[C@H](c3ccoc3)C[C@]21C` came in with a Ki of more than 1000 nM.

Compound `CC(=O)O[C@H]1C[C@@H](COC(=O)Cc2ccccc2)[C@]2(C)CC[C@H]3C(=O)O[C@H](c4ccoc4)C[C@]3(C)[C@H]2C1=O` registered an inhibition constant (Ki) in assay [1] of more than 1000 nM.

`CC(=O)O[C@H]1C[C@@H](CO)[C@]2(C)CC[C@H]3C(=O)O[C@H](c4ccoc4)C[C@]3(C)[C@H]2C1=O`: in assay [1], the Ki was found to be 43.4 nM. The compound also had an Efficacy in assay [2] of 107%. This compound also registered a 50% effective concentration (EC50) in assay [3] of 20.7 nM.

`CC(=O)O[C@H]1C[C@@H](COC(=O)c2cccc(F)c2)[C@]2(C)CC[C@H]3C(=O)O[C@H](c4ccoc4)C[C@]3(C)[C@H]2C1=O` yielded a Ki in assay [1] of more than 1000 nM.

`CC(=O)O[C@H]1C[C@@H](COC(=O)C(C)N(C)C(=O)OCC2c3ccccc3-c3ccccc32)[C@]2(C)CC[C@H]3C(=O)O[C@H](c4ccoc4)C[C@]3(C)[C@H]2C1=O` (stereo not given in full) had an inhibitory constant (Ki) in assay [1] of more than 1000 nM.

In assay [1], `CC(=O)O[C@H]1C[C@@H](COC(=O)c2ccc(Br)cc2)[C@]2(C)CC[C@H]3C(=O)O[C@H](c4ccoc4)C[C@]3(C)[C@H]2C1=O` gave a Ki of more than 1000 nM.

In assay [1], `CC(=O)O[C@H]1C[C@@H](c2nnnn2CCC#N)[C@]2(C)CC[C@H]3C(=O)O[C@H](c4ccoc4)C[C@]3(C)[C@H]2C1=O` gave a Ki of more than 1000 nM.

Turning to `C=CCOC[C@@H]1C[C@H](OC(C)=O)C(=O)[C@H]2[C@@]1(C)CC[C@H]1C(=O)O[C@H](c3ccoc3)C[C@]21C`, the Ki in assay [1] is more than 1000 nM.

In the case of `CC(=O)O[C@H]1C[C@@H](COCc2ccccc2)[C@]2(C)CC[C@H]3C(=O)O[C@H](c4ccoc4)C[C@]3(C)[C@H]2C1=O`, the Ki in assay [1] was more than 1000 nM.

`C#CCC(=O)OC[C@@H]1C[C@H](OC(C)=O)C(=O)[C@H]2[C@@]1(C)CC[C@H]1C(=O)O[C@H](c3ccoc3)C[C@]21C` showed a Ki in assay [1] of more than 1000 nM.

Compound `C/C=C/C(=O)OC[C@@H]1C[C@H](OC(C)=O)C(=O)[C@H]2[C@@]1(C)CC[C@H]1C(=O)O[C@H](c3ccoc3)C[C@]21C` gave an inhibitory constant (Ki) in assay [1] of more than 1000 nM.

Regarding `CC(=O)OC[C@@H]1C[C@H](OC(C)=O)C(=O)[C@H]2[C@@]1(C)CC[C@H]1C(=O)O[C@H](c3ccoc3)C[C@]21C`, the Ki in assay [1] is more than 1000 nM.

Turning to `CC(=O)O[C@H]1C[C@@H](COC(=O)C(C)NC(=O)OCC2c3ccccc3-c3ccccc32)[C@]2(C)CC[C@H]3C(=O)O[C@H](c4ccoc4)C[C@]3(C)[C@H]2C1=O` (stereo not given in full), the Ki in assay [1] is more than 1000 nM.

As for `CC(=O)O[C@H]1C[C@@H](C=O)[C@]2(C)CC[C@H]3C(=O)O[C@H](c4ccoc4)C[C@]3(C)[C@H]2C1=O`, the Ki in assay [1] is more than 1000 nM.

The compound `CC(=O)O[C@H]1C[C@@H](COC(=O)c2ccc(C)cc2)[C@]2(C)CC[C@H]3C(=O)O[C@H](c4ccoc4)C[C@]3(C)[C@H]2C1=O` came in with a Ki in assay [1] of more than 1000 nM.

Turning to `CC(=O)O[C@H]1C[C@@H](C(=O)O)[C@]2(C)CC[C@H]3C(=O)O[C@H](c4ccoc4)C[C@]3(C)[C@H]2C1=O`, the inhibition constant Ki in assay [1] was more than 1000 nM.
